# Active and inactive are the calls of the source. The rule behind the calls is not given here.
# Tested on: Broad 7084-01 inhibitor HTS, set 2
# Assay: single-concentration hits, screen 7084 set 2 (AID 977613);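 note: host cells are infected with parasite promastigotes that become internalized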
row,Compound,active concentration
1,O=C(CC1CC1)N1CC(=O)N2[C@H](CO)[C@H](c3ccc(C#Cc4cccc(F)c4)cc3)[C@@H]2C1,> 10 µM (inactive)
2,CN1C[C@H](O)COC[C@@H]2O[C@H](CC(=O)NC3CCCC3)CC[C@H]21,> 10 µM (inactive)
3,O=C(C[C@H]1CC[C@H]2[C@@H](COC[C@H](O)CN2C(=O)Nc2ccc(Cl)c(Cl)c2)O1)NCc1ccc(Cl)cc1,> 10 µM (inactive)
4,COc1cccc(-c2ccc3c(c2)[C@H]2[C@H](CCN2C(=O)Cc2ccccc2)[C@H](CO)N3)c1,> 10 µM (inactive)
5,CC(=O)N1CC[C@@H]2[C@H](CO)Nc3ccc(C#Cc4cccnc4)cc3[C@@H]21,> 10 µM (inactive)
6,N#C[C@H]1[C@H](c2ccccc2C2=CCCCC2)[C@H](CO)N1C(=O)c1cccc(F)c1,> 10 µM (inactive)
7,O=C(c1ccncc1)N1C[C@@H]2[C@H](c3ccccc31)[C@H](CO)N2Cc1ccccc1F,> 10 µM (inactive)
8,O=C(C1CCC1)N1[C@H](CO)[C@@H](c2ccccc2)C12CN(CCC(F)(F)F)C2,> 10 µM (inactive)
9,Cn1cnc(S(=O)(=O)N2C[C@@H](O)COC[C@@H]3O[C@@H](CC(=O)NC4CCCC4)CC[C@H]32)c1,> 10 µM (inactive)
10,COc1ccc2c3c(n(C)c2c1)[C@@H](CO)NCC31CCN(Cc2cc(F)ccc2F)CC1,> 10 µM (inactive)
11,O=C1CNC[C@H]2[C@@H](c3ccc(C#CC4CCCCC4)cc3)[C@@H](CO)N12,> 10 µM (inactive)
12,C/C=C/c1ccc([C@H]2[C@@H](CO)N3C(=O)CN(S(=O)(=O)c4ccccc4)C[C@@H]23)cc1,> 10 µM (inactive)
13,O=C1CNC[C@H]2[C@H](c3ccc(C4=CCCC4)cc3)[C@@H](CO)N12,> 10 µM (inactive)
14,O=C(CC1CC1)N1CC(=O)N2[C@H](CO)[C@H](c3ccc(C#Cc4cccc(F)c4)cc3)[C@H]2C1,> 10 µM (inactive)
15,O=C(C1CCCCC1)N1C[C@@H]2[C@H](c3ccccc31)[C@H](CO)N2C(=O)Cc1ccccn1,> 10 µM (inactive)
16,O=C(NCCCN1CCOCC1)[C@@H]1[C@@H](CO)[C@@H]2Cn3c(ccc(C4=CCCCC4)c3=O)[C@H]1N2,> 10 µM (inactive)
17,O=C(CC1CC1)N1[C@H](CO)[C@@H]2c3ccccc3N(S(=O)(=O)c3ccccc3F)C[C@@H]21,> 10 µM (inactive)
18,CN1C(=O)c2cc(NC(=O)Cc3cccs3)ccc2OC[C@H]2O[C@H](CC(=O)N[C@H]3CCN(Cc4ccccc4)C3)CC[C@H]21,> 10 µM (inactive)
19,CCS(=O)(=O)N1CC2(CN(C(=O)Cc3ccccn3)[C@H](CO)c3[nH]c4cc(OC)ccc4c32)C1,> 10 µM (inactive)
20,O=C(c1cnccn1)N1CC[C@@H]2[C@H](CO)Nc3ccc(-c4ccccc4F)cc3[C@@H]21,> 10 µM (inactive)
21,O=C(C[C@@H]1CC[C@@H]2[C@H](COC[C@@H](O)CN2C(=O)c2ccccc2F)O1)NCc1ccccc1,> 10 µM (inactive)
22,CCCC#Cc1ccc([C@@H]2[C@@H](CO)N3C(=O)CN(C(=O)CN4CCOCC4)C[C@@H]23)cc1,> 10 µM (inactive)
23,CCC(=O)N1[C@H](CO)[C@@H](c2ccc(/C=C/c3ccccc3)cc2)C12CN(S(C)(=O)=O)C2,> 10 µM (inactive)
24,OC[C@H]1[C@@H](c2ccc(-c3ccccc3F)cc2)[C@H]2CN(Cc3cncnc3)CCCCN21,> 10 µM (inactive)
25,O=C(CC(F)(F)F)N1C[C@@H]2[C@H](c3ccccc31)[C@H](CO)N2C(=O)C1CC1,> 10 µM (inactive)
26,COc1ccc2c3c([nH]c2c1)[C@@H](CO)N(C(=O)Nc1ccc(F)cc1)CC31CN(C(=O)c2ccccc2F)C1,> 10 µM (inactive)

row,Compound,active concentration
1,O=C(C1CCOCC1)N1CC(=O)N2[C@@H](CO)[C@H](c3ccc(-c4cccnc4)cc3)[C@@H]2C1,> 10 µM (inactive)
2,CCC(=O)N1CC2(C1)CN(C(=O)c1cnccn1)[C@H](CO)c1c2c2ccc(OC)cc2n1C,> 10 µM (inactive)
3,O=C(Nc1cccc(F)c1)N1C[C@@H]2[C@H](c3ccccc31)[C@@H](CO)N2C(=O)Cc1ccccn1,> 10 µM (inactive)
4,COc1ccccc1S(=O)(=O)N1CC[C@H]2[C@H](CO)Nc3ccc(-c4ccc(C#N)cc4)cc3[C@H]21,> 10 µM (inactive)
5,CC(C)NC(=O)N1CC2(C1)[C@H](c1ccccc1)[C@@H](CO)N2C(=O)C1CCCC1,> 10 µM (inactive)
6,COc1ccccc1-c1ccccc1[C@H]1[C@@H](CO)N(C(=O)C2CCOCC2)[C@H]1C#N,> 10 µM (inactive)
7,O=C(C[C@@H]1CC[C@@H]2[C@H](COC[C@H](O)CN2Cc2nccs2)O1)NCc1ccccc1,> 10 µM (inactive)
8,O=C(C[C@H]1CC[C@H]2[C@@H](COC[C@H](O)CN2Cc2cccc(F)c2)O1)NCc1cccc(F)c1,> 10 µM (inactive)
9,C/C=C/c1ccc([C@H]2[C@@H](CO)N3C(=O)CN(C(=O)c4ccncc4)C[C@@H]23)cc1,> 10 µM (inactive)
10,O=C(NC1CCCC1)N1CCCCN2[C@H](CO)[C@@H](c3ccc(-c4cccnc4)cc3)[C@@H]2C1,> 10 µM (inactive)
11,O=C(C[C@@H]1CC[C@@H]2[C@H](COC[C@@H](O)CN2CC2CC2)O1)NCC1CC1,> 10 µM (inactive)
12,O=C1CNC[C@H]2[C@@H](c3ccc(C4=CCCC4)cc3)[C@@H](CO)N12,> 10 µM (inactive)
13,O=C(C[C@@H]1CC[C@H]2[C@@H](COC[C@@H](O)CN2CC2CC2)O1)NCC1CC1,> 10 µM (inactive)
14,O=C1CNC[C@H]2[C@@H](c3ccc(C4=CCCC4)cc3)[C@H](CO)N12,> 10 µM (inactive)
15,CC(C)CC#Cc1ccc([C@@H]2[C@H](CO)N3C(=O)CN(S(=O)(=O)c4cccc(F)c4)C[C@@H]23)cc1,> 10 µM (inactive)
16,O=C(c1ccccn1)N1CC(=O)N2[C@H](CO)[C@H](c3ccc(C4=CCCC4)cc3)[C@@H]2C1,> 10 µM (inactive)
17,O=C1CN(S(=O)(=O)Cc2ccccc2)C[C@@H]2[C@H](c3ccc(C#Cc4ccccc4)cc3)[C@@H](CO)N12,> 10 µM (inactive)
18,CCCC#Cc1ccc([C@@H]2[C@@H](CO)N3C(=O)CN(S(=O)(=O)c4ccccc4C)C[C@H]23)cc1,> 10 µM (inactive)
19,CCCNC(=O)N1[C@H](C#N)[C@H](c2ccccc2C2=CCCCC2)[C@@H]1CO,> 10 µM (inactive)
20,CCCNC(=O)N1CC2(CN(C(=O)Cc3cccnc3)C2)c2c([nH]c3cc(OC)ccc23)[C@H]1CO,> 10 µM (inactive)
21,COc1cccc(-c2ccc3c(c2)[C@@H]2[C@@H](CCN2S(=O)(=O)c2cn(C)cn2)[C@@H](CO)N3)c1,> 10 µM (inactive)
22,COc1cccc(C(=O)N2C[C@@H]3[C@H](c4ccccc42)[C@H](CO)N3Cc2ccccc2Cl)c1,> 10 µM (inactive)
23,O=C(C[C@@H]1CC[C@@H]2[C@H](COC[C@@H](O)CN2C(=O)c2cccnc2)O1)NCc1ccccc1,> 10 µM (inactive)
24,CCC(=O)N1C[C@H]2[C@@H](c3ccccc31)[C@H](CO)N2C(=O)CC,> 10 µM (inactive)
25,O=C(CN1CCOCC1)N1CC2(C1)[C@@H](c1ccccc1)[C@@H](CO)N2Cc1ccc(F)cc1,> 10 µM (inactive)

# Reference: PubChem BioAssay AID977613 (Broad Institute, 2014)
